Patent US6124269A, “2-Halo-6-O-substituted ketolide derivatives” (priority 1998, dated 2000)
≈ marks a conversion by molar mass, not a printed value.

Key:
Type in all cases: cell-based
[1] = test system: Staphylococcus aureus ATCC 6538P; assay: In vitro agar dilution MIC, organism code AA; settings: Table 1B, unit assumed
Method: (§1) Representative compounds of the present invention were assayed in vitro for antibacterial activity as follows: Twelve petri dishes containing successive aqueous dilutions of the test compound mixed with 10 mL of sterilized Brain Heart Infusion (BHI) agar (Difco 0418-01-5) were prepared. Each plate was inoculated with 1:100 (or 1:10 for slow-growing strains, such as Micrococcus and Streptococcus) dilutions of up to 32 different microorganisms, using a Steers replicator block. The inoculated plates were incubated at 35-37° C. for 20 to 24 hours. In addition, a control plate, using BHI agar containing no test compound, was prepared and incubated at the beginning and end of each test.
(§2) An additional plate containing a compound having known susceptibility patterns for the organisms being tested and belonging to the same antibiotic class as the test compound was also prepared and incubated as a further control, as well as to provide test-to-test comparability.
(§3) After incubation, each plate was visually inspected. The minimum inhibitory concentration (MIC) was defined as the lowest concentration of drug yielding no growth, a slight haze, or sparsely isolated colonies on the inoculum spot as compared to the growth control.

[2] = test system: Staphylococcus aureus A5177; assay: In vitro agar dilution MIC, organism code BB; settings: Table 1B, in µg/mL (unit assumed)
Method: as §1, §2, §3

[3] = test system: Staphylococcus aureus A-5278; assay: In vitro agar dilution MIC, organism code CC; settings: Table 1B, unit assumed
Method: as §1, §2, §3

[4] = test system: Staphylococcus aureus CMX 642A; assay: In vitro agar dilution MIC, organism code DD; settings: Table 1B, unit assumed
Method: as §1, §2, §3

[5] = test system: Staphylococcus aureus NCTC10649M; assay: In vitro agar dilution MIC, organism code EE; settings: Table 1B, unit assumed
Method: as §1, §2, §3

[6] = test system: Staphylococcus aureus CMX 553; assay: In vitro agar dilution MIC, organism code FF; settings: Table 1B, unit assumed
Method: as §1, §2, §3

[7] = test system: Staphylococcus aureus 1775; assay: In vitro agar dilution MIC, organism code GG; settings: Table 1B, unit assumed
Method: as §1, §2, §3

[8] = test system: Staphylococcus epidermidis 3519; assay: In vitro agar dilution MIC, organism code HH; settings: Table 1B, in µg/mL (unit assumed)
Method: as §1, §2, §3

[9] = test system: Enterococcus faecium ATCC 8043; assay: In vitro agar dilution MIC, organism code II; settings: Table 1B, unit assumed
Method: as §1, §2, §3

[10] = test system: Streptococcus bovis A-5169; assay: In vitro agar dilution MIC, organism code JJ; settings: Table 1B, unit assumed
Method: as §1, §2, §3

[11] = test system: Streptococcus agalactiae CMX 508; assay: In vitro agar dilution MIC, organism code KK; settings: Table 1B, unit assumed
Method: as §1, §2, §3

[12] = test system: Streptococcus pyogenes EES61; assay: In vitro agar dilution MIC, organism code LL; settings: unit assumed
Method: as §1, §2, §3

[13] = test system: Streptococcus pyogenes 930; assay: In vitro agar dilution MIC, organism code MM; settings: unit assumed
Method: as §1, §2, §3

[14] = test system: Streptococcus pyogenes PIU 2548; assay: In vitro agar dilution MIC, organism code NN; settings: unit assumed
Method: as §1, §2, §3

[15] = test system: Micrococcus luteus ATCC 9341; assay: In vitro agar dilution MIC, organism code OO; settings: Table 1B, unit assumed
Method: as §1, §2, §3

[16] = test system: Micrococcus luteus ATCC 4698; assay: In vitro agar dilution MIC, organism code PP; settings: Table 1B, in µg/mL (unit assumed)
Method: as §1, §2, §3

Escherichia coli JUHL = assay: In vitro agar dilution MIC, organism code QQ; settings: Table 1B, in µg/mL (unit assumed)
Method: as §1, §2, §3

Escherichia coli SS = assay: In vitro agar dilution MIC, organism code RR; settings: Table 1B, in µg/mL (unit assumed)
Method: as §1, §2, §3

Escherichia coli DC-2 = assay: In vitro agar dilution MIC, organism code SS; settings: Table 1B, unit assumed
Method: as §1, §2, §3

Candida albicans CCH 442 = assay: In vitro agar dilution MIC, organism code TT; settings: Table 1B, unit assumed
Method: as §1, §2, §3

[17] = test system: Mycobacterium smegmatis ATCC 114; assay: In vitro agar dilution MIC, organism code UU; settings: Table 1B, in µg/mL (unit assumed)
Method: as §1, §2, §3

[18] = test system: Nocardia asteroides ATCC 9970; assay: In vitro agar dilution MIC, organism code VV; settings: Table 1B, in µg/mL (unit assumed)
Method: as §1
as §2, with “comparability. Erythromycin A was used for this purpose.” for “comparability.”
as §3

[19] = test system: Haemophilis influenzae DILL AMP R; assay: In vitro agar dilution MIC, organism code WW; settings: unit assumed
Method: as §1, §2, §3

[20] = test system: Streptococcus pneumoniae ATCC 6303; assay: In vitro agar dilution MIC, organism code XX; settings: unit assumed
Method: as §1, §2, §3

[21] = test system: Streptococcus pneumoniae GYR 1171; assay: In vitro agar dilution MIC, organism code YY; settings: Table 1B, unit assumed
Method: as §1, §2, §3

[22] = test system: Streptococcus pneumoniae 5979; assay: In vitro agar dilution MIC, organism code ZZ; settings: unit assumed
Method: as §1, §2, §3

[23] = test system: Streptococcus pneumoniae 5649; assay: In vitro agar dilution MIC, organism code ZZA; settings: unit assumed
Method: as §1, §2, §3

Structure (SMILES)	MIC [1] [µg/mL]	MIC [2]	MIC [3] [µg/mL]	MIC [4] [µg/mL]	MIC [5] [µg/mL]	MIC [6] [µg/mL]	MIC [7] [µg/mL]	MIC [8]	MIC [9] [µg/mL]	MIC [10] [µg/mL]	MIC [11] [µg/mL]	MIC ([12]; Table 1B) [µg/mL]	MIC ([13]; Table 1B) [µg/mL]	MIC ([14]; Table 1B) [µg/mL]	MIC [15] [µg/mL]	MIC [16]	MIC (Escherichia coli JUHL)	MIC (Escherichia coli SS)	MIC (Escherichia coli DC-2) [µg/mL]	MIC (Candida albicans CCH 442) [µg/mL]	also measured
CC[C@H]1OC(=O)[C@@](C)(F)C(=O)[C@H](C)[C@@H](O[C@@H]2O[C@H](C)C[C@H](N(C)C)[C@H]2O)[C@](C)(OC/C=C/c2cnc3ccccc3c2)C[C@@H](C)C(=O)[C@H](C)[C@H]2NC(=O)O[C@@]21C [Example 5]	0.05 (≈ 0.0638 µM)	0.05	> 100	0.05 (≈ 0.0638 µM)	0.05 (≈ 0.0638 µM)	0.05 (≈ 0.0638 µM)	> 100	0.05	0.02 (≈ 0.0255 µM)	0.005 (≈ 0.00638 µM)	0.01 (≈ 0.0128 µM)	0.01 (≈ 0.0128 µM)	0.2 (≈ 0.255 µM)	0.05 (≈ 0.0638 µM)	0.01 (≈ 0.0128 µM)	0.1	25	0.2	25 (≈ 31.9 µM)	12.5 (≈ 15.9 µM)	MIC ([12]; Table 1D): 0.03 µg/mL (≈ 0.0383 µM); MIC ([13]; Table 1D): 0.25 µg/mL (≈ 0.319 µM); MIC ([14]; Table 1D): 0.25 µg/mL (≈ 0.319 µM); MIC [17]: 0.2; MIC [18]: 0.005; MIC ([19]; Table 1B): 1 µg/mL (≈ 1.28 µM); MIC ([19]; Table 1D): 1 µg/mL (≈ 1.28 µM); MIC ([20]; Table 1B): 0.03 µg/mL (≈ 0.0383 µM); MIC ([20]; Table 1D): 0.03 µg/mL (≈ 0.0383 µM); MIC [21]: 0.03 µg/mL (≈ 0.0383 µM); MIC ([22]; Table 1B): 1 µg/mL (≈ 1.28 µM); MIC ([22]; Table 1D): 1 µg/mL (≈ 1.28 µM); MIC ([23]; Table 1B): 0.25 µg/mL (≈ 0.319 µM); MIC ([23]; Table 1D): 0.25 µg/mL (≈ 0.319 µM)
CC[C@H]1OC(=O)[C@@](C)(F)C(=O)[C@H](C)[C@@H](O[C@@H]2O[C@H](C)C[C@H](N(C)C)[C@H]2O)[C@](C)(OC/C=C/c2cnc3ccc(C=NN=C(C)C)cc3c2)C[C@@H](C)C(=O)[C@H](C)[C@H]2NC(=O)O[C@@]21C [Example 20]	0.1 (≈ 0.115 µM)	0.1	> 100	0.1 (≈ 0.115 µM)	0.2 (≈ 0.231 µM)	0.1 (≈ 0.115 µM)	> 100	0.2	0.1 (≈ 0.115 µM)	0.01 (≈ 0.0115 µM)	0.02 (≈ 0.0231 µM)	0.02 (≈ 0.0231 µM)	1.56 (≈ 1.8 µM)	0.2 (≈ 0.231 µM)	0.02 (≈ 0.0231 µM)	0.1	> 100	0.78	> 100	> 100	MIC [17]: 0.78; MIC [18]: 0.02; MIC ([19]; Table 1B): 4 µg/mL (≈ 4.62 µM); MIC ([20]; Table 1B): 0.125 µg/mL (≈ 0.144 µM); MIC [21]: 0.06 µg/mL (≈ 0.0693 µM); MIC ([22]; Table 1B): 2 µg/mL (≈ 2.31 µM); MIC ([23]; Table 1B): 1 µg/mL (≈ 1.15 µM)
CC[C@H]1OC(=O)[C@@](C)(F)C(=O)[C@H](C)[C@@H](O[C@@H]2O[C@H](C)C[C@H](N(C)C)[C@H]2O)[C@](C)(OC/C=C/c2cnc3ccc([N+](=O)[O-])cc3c2)C[C@@H](C)C(=O)[C@H](C)[C@H]2NC(=O)O[C@@]21C [Example 6]	0.05 (≈ 0.0603 µM)	0.05	100 (≈ 121 µM)	0.05 (≈ 0.0603 µM)	0.1 (≈ 0.121 µM)	0.05 (≈ 0.0603 µM)	100 (≈ 121 µM)	0.05	0.05 (≈ 0.0603 µM)	0.01 (≈ 0.0121 µM)	0.02 (≈ 0.0241 µM)	≤ 0.005	0.39 (≈ 0.47 µM)	0.05 (≈ 0.0603 µM)	0.01 (≈ 0.0121 µM)	0.05	25	0.05	25 (≈ 30.2 µM)	100 (≈ 121 µM)	MIC [17]: 0.1; MIC [18]: 0.02; MIC ([19]; Table 1B): 2 µg/mL (≈ 2.41 µM); MIC ([20]; Table 1B): ≤ 0.004 µg/mL; MIC [21]: ≤ 0.004 µg/mL; MIC ([22]; Table 1B): 1 µg/mL (≈ 1.21 µM); MIC ([23]; Table 1B): 0.125 µg/mL (≈ 0.151 µM)
